{"source": "ChEMBL document CHEMBL1148404", "about": "“Novel heteroarotinoids as potential antagonists of Mycobacterium bovis BCG” (2004)", "assay_type_in_all_cases": "functional", "key": {"[1]": {"system": "Mycobacterium tuberculosis variant bovis", "test": "Antibacterial activity against Mycobacterium bovis (BCG); value ranges from 20-40"}, "[2]": {"system": "Mycobacterium tuberculosis variant bovis", "test": "Antibacterial activity against Mycobacterium bovis (BCG); value ranges from 2-4"}, "[3]": {"system": "Mycobacterium tuberculosis variant bovis", "test": "Antibacterial activity against Mycobacterium bovis (BCG); value ranges from 5-10"}, "[4]": {"system": "Mycobacterium tuberculosis variant bovis", "test": "Antibacterial activity against Mycobacterium bovis (BCG); value ranges from 10-20"}, "[5]": {"system": "Mycobacterium tuberculosis variant bovis", "test": "Antibacterial activity against Mycobacterium bovis (BCG); value ranges from 0.5-1"}}, "data": [{"smiles": "CCOC(=O)c1ccc(NC(=O)Nc2ccc3c(c2)C(C)(C)CC(C)(C)S3)cc1", "values": [{"measurement": "MIC", "setting": "[1]", "value": "< 40", "unit": "µg/mL"}]}, {"smiles": "CCOC(=O)c1ccc(NC(=O)Nc2ccc3c(c2)C(C)(C)CC(C)(C)O3)cc1", "values": [{"measurement": "MIC", "setting": "[1]", "value": "< 40", "unit": "µg/mL"}]}, {"smiles": "CC1(C)CC(C)(C)c2cc(N/C(S)=N/c3ccc([N+](=O)[O-])cc3)ccc2O1", "values": [{"measurement": "MIC", "setting": "[1]", "value": "< 40", "unit": "µg/mL"}]}, {"smiles": "COc1ccc2c(c1/N=C(\\S)Nc1ccc([N+](=O)[O-])cc1)C(C)(C)COC2(C)C", "values": [{"measurement": "MIC", "setting": "[1]", "value": "< 40", "unit": "µg/mL"}]}, {"smiles": "CC1=CC(C)(C)N(C)c2ccc(N/C(S)=N/c3ccc([N+](=O)[O-])cc3)cc21", "values": [{"measurement": "MIC", "setting": "[1]", "value": "< 40", "unit": "µg/mL"}]}, {"smiles": "CCOC(=O)c1ccc(N/C(S)=N/c2ccc3c(c2)C(C)=CC(C)(C)N3C)cc1", "values": [{"measurement": "MIC", "setting": "[1]", "value": "< 40", "unit": "µg/mL"}]}, {"smiles": "CCOC(=O)c1ccc(N/C(S)=N/c2ccc3c(c2)C(C)(C)CC(C)(C)S3)cc1", "values": [{"measurement": "MIC", "setting": "[1]", "value": "< 40", "unit": "µg/mL"}]}, {"smiles": "COc1ccc2c(c1NC(=S)NC(=O)c1ccc([N+](=O)[O-])cc1)C(C)(C)COC2(C)C", "values": [{"measurement": "MIC", "setting": "[1]", "value": "< 40", "unit": "µg/mL"}]}, {"smiles": "CCOC(=O)c1ccc(NC(=O)Nc2ccc3c(c2)C(C)=CC(C)(C)N3C)cc1", "values": [{"measurement": "MIC", "setting": "[1]", "value": "< 40", "unit": "µg/mL"}]}, {"smiles": "CC1(C)CC(C)(C)c2cccc(/N=C(\\S)Nc3ccc([N+](=O)[O-])cc3)c2O1", "values": [{"measurement": "MIC", "setting": "[1]", "value": "< 40", "unit": "µg/mL"}]}, {"smiles": "COC(=O)c1ccc(C(=O)Oc2ccc3c(c2)OC(C)(C)C=C3C)cc1", "values": [{"measurement": "MIC", "setting": "[2]", "value": "< 4", "unit": "µg/mL"}]}, {"smiles": "CCOC(=O)c1ccc(NC(=O)Nc2cccc3c2OC(C)(C)CC3(C)C)cc1", "values": [{"measurement": "MIC", "setting": "[1]", "value": "< 40", "unit": "µg/mL"}]}, {"smiles": "CCOC(=O)c1ccc(N/C(S)=N/c2cccc3c2OC(C)(C)CC3(C)C)cc1", "values": [{"measurement": "MIC", "setting": "[1]", "value": "< 40", "unit": "µg/mL"}]}, {"smiles": "CCOC(=O)c1ccc(N/C(S)=N/c2ccc3c(c2)C(C)(C)CC(C)(C)O3)cc1", "values": [{"measurement": "MIC", "setting": "[3]", "value": "< 10", "unit": "µg/mL"}]}, {"smiles": "CC1=CC(C)(C)N(C)c2ncc(/C=C/C(C)=C\\C=N\\N=C(/N)S)cc21", "values": [{"measurement": "MIC", "setting": "[4]", "value": "< 20", "unit": "µg/mL"}]}, {"smiles": "CC(C)CCOc1ccc(NC(=S)Nc2ccc(OCCC(C)C)cc2)cc1", "note": "[TIOCARLIDE]", "values": [{"measurement": "MIC", "setting": "[5]", "value": "< 1", "unit": "µg/mL"}]}]}
